Experimental data reported in publication doi:10.1101/2023.03.18.532921v1 (biorxiv, 2023).

Target: dA (isolated discontinuous domain A of LAO) (Salmonella enterica, UniProt P02911, DEL114-206)
Experiment: biochemical

N=C(N)NCCC[C@H](N)C(=O)O [L-arginine]
Kd: 131 µM
